EC50 data for 21 compounds are collected here from US20240217963A1, “RECEPTOR-INTERACTING PROTEIN 1 INHIBITORS, PREPARATIONS, AND USES THEREOF” (SIRONAX LTD., priority 2021, published 2024).

Each structure is given as a SMILES string.

As usually defined, the EC50 is the concentration at which the effect is half-maximal.

This test has as its target T1, RIP1 (Homo sapiens, UniProt Q13546).
T1 sequence (Q13546 1-671): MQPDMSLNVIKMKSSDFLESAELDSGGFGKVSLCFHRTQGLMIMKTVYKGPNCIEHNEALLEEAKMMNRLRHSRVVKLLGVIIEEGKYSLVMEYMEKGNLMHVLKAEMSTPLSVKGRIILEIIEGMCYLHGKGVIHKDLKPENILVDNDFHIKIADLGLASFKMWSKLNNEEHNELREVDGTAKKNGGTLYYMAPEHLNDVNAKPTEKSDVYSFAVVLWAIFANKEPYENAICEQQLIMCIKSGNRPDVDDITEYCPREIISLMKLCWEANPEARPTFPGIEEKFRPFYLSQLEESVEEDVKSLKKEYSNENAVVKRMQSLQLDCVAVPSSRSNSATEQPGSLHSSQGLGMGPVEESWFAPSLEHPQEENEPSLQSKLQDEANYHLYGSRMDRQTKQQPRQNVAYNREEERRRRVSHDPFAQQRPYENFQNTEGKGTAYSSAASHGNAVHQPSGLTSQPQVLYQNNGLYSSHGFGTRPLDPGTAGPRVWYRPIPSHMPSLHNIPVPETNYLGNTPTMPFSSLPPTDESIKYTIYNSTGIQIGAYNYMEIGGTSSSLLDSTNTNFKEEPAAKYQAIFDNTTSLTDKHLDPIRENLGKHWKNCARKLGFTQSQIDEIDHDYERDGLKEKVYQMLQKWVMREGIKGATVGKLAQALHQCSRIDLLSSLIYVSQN
As to the kind of experiment: Cellular RIP1 inhibitory activity: HT-29 necroptosis (TNFα/SMAC mimetic/zVAD-FMK) CellTiter-Glo viability assay. It counts as cell-based. To be noted: HT-29 cells, TNF-α 10 ng/ml + SMAC mimetic 6 μM + zVAD-FMK 10 μM, 20 hours, geometric mean, read-out: EC50 Values of in vitro Cellular RIP1 Inhibitory Activity. The procedure:
Compounds 1-99 (denoted as Cmpd Nos. 1 through 99 in Table 2 below) of the disclosure were tested for binding and cellular RIP1 inhibitory activity following the experimental procedures described below. Cell Seeding • 1. HT-29 cells were checked every day to make sure that they were healthy and growing as expected. They were subjected to sub-culturing when they were approximately 80% confluent. • 2. The culture medium, McCOY's 5 A medium (Gibco, Cat No. 16600-082) with 10% fetal bovine serum or FBS (Gibco, Cat No. 10099-141C), was pre-warmed in a 37° C. water bath for at least 30 min. • 3. When the cells had reached a desired level of confluency of 80% in a T75 flask, the medium was aspirated, and the cells were washed with warm phosphate buffered saline or PBS two times. • 4. 2-3 ml fresh warm trypsin (Gibco, Cat No. 25200-056) solution was added to the washed cells. The flask with the cells was transferred to a 37° C. incubator. • 5. After 5 minutes, the side of the flask was tapped, and the flask was examined under a microscope for detachment of the cells to the flask. If necessary, the cells were kept in the incubator for an additional 5-10 minutes, with occasional tapping, until lifting was complete. • 6. The trypsin reaction was neutralized by transferring 6-9 ml cell culture medium to sterile 15 ml conical tubes, and by centrifuging the cell culture at 300×g for 7 minutes to pellet the cells (supernatant decanted). • 7. The cells were resuspended in fresh cell culture medium and the cell counting was performed using a hemocytometer. • 8. 100 μl of the resuspended cell culture medium containing ˜5,000 cells were transferred into each well of the sterile 96-well cell culture plate (Corning 3903) and cultured overnight at 37° C. with 5% CO2. Compound Titration and Treatment • 1. All test compounds were dissolved in DMSO (Dimethyl sulfoxide) to create a 20 mM stock. • 2. 3 μl of each compound 20 mM stock was mixed with 27 μl DMSO, and the compound solution was further diluted at a titration ratio of 1:3 (20 μl compound solution+40 μl DMSO) till the 10 points end. • 3. All culture medium was removed from assay plates filled with HT-29 cell cultures. […] 0.5 μL of the diluted compound solution was added to the corresponding 96-well assay plates. • 5. The assay plates were incubated for 20 hours at 37° C. with 5% CO2. Cell Viability Detection • 1. The CellTiter-Glo® Luminescent Cell Viability Assay was employed to detect the ATP levels of viable HT-29 cells. • 2. The CellTiter-Glo® buffer and the lyophilized substrate were equilibriated to room temperature prior to use. • 3. The CellTiter-Glo® substrate was resuspended with CellTiter-Glo® buffer, then mixed by gently vortexing to obtain a homogeneous solution. • 4. 20 μl the enzyme/substrate mixture was transferred by multi-channel pipetting into 96-well assay plates. • 5. The assay plates were placed on an orbital shaker and the contents were shaken for 3 minutes to induce cell lysis. • 6. The assay plates were incubated at room temperature for 10 minutes to stabilize the luminescent signal. • 7. The luminescence signals were read and recorded with EnVision. • 8. The geometric mean EC50 values were calculated from 10 points response dose with duplicates. In Table 2, activity is provided as follows: +++=0.1 nM≤EC50<100 nM; ++=100 nM≤EC50<1000 nM; +=1000 nM≤EC50<10000 nM.
For orientation: ATP-based viability assays read luminescence as a measure of living cells.
Regarding `Cc1cnn(C)c1-c1nc(N2CCC(C(=O)N(O)Cc3cnco3)CC2)ncc1F` [Compound 23, 1-(4-(1,4-dimethyl-1H-pyrazol-5-yl)-5-fluoropyrimidin-2-yl)-N-hydroxy-N-(oxazol-5-ylmethyl)piperidine-4-carboxamide], the 50% effective concentration (EC50) was 0.1 to 100 nM.

Turning to `CCN(Cc1cc(C)n(C)n1)C(=O)C1CCN(c2ncc(F)c(-c3c(C)cnn3C)n2)CC1` [Compound 80, N-((1,5-dimethyl-1H-pyrazol-3-yl)methyl)-1-(4-(1,4-dimethyl-1H-pyrazol-5-yl)-5-fluoropyrimidin-2-yl)-N-ethylpiperidine-4-carboxamide], the EC50 was 100 to 1000 nM.

As to `Cc1nc(C)n(-c2nc(N3CCC(C(=O)N(O)Cc4ccccn4)CC3)ncc2F)n1` [Compound 7, 1-(4-(3,5-dimethyl-1H-1,2,4-triazol-1-yl)-5-fluoropyrimidin-2-yl)-N-h ydroxy-N-(pyridin-2-ylmethyl)piperidine-4-carboxamide], the EC50 lay within 100 to 1000 nM.

As to `Cc1cnn(C)c1-c1nc(N2CCC(C(=O)N(O)CC3=CCCCC3)CC2)ncc1F` [Compound 48, N-(cyclohex-1-en-1-ylmethyl)-1-(4-(1,4-dimethyl-1H-pyrazol-5-yl)-5-fluoropyrimidin-2-yl)-N-hydroxypiperidine-4-carboxamide], the EC50 lay in the range of 0.1 to 100 nM.

Regarding `Cc1nc(C)n(-c2nc(N3CCC(C(=O)N(C)Cc4cc(F)cc(F)c4)CC3)ncc2F)n1` [Compound 64, N-(3,5-difluorobenzyl)-1-(4-(3,5-dimethyl-1H-1,2,4-triazol-1-yl)-5-fluoropyrimidin-2-yl)-N-methylpiperidine-4-carboxamide], the concentration for a half-maximal effect (EC50) lay in the range of 0.1 to 100 nM.

`Cc1cnn(C)c1-c1cc(N2CCC(C(=O)N(C)Cc3cc(F)cc(F)c3)CC2)ncn1` [Compound 88, N-(3,5-difluorobenzyl)-1-(6-(1,4-dimethyl-1H-pyrazol-5-yl)pyrimidin-4-yl)-N-methylpiperidine-4-carboxamide]: the EC50 lay within 0.1 to 100 nM.

As for `Cc1nc(C)n(-c2nc(N3CCC(C(=O)N(O)Cc4cc(F)cc(F)c4)CC3)ncc2F)n1` [Compound 1, N-(3,5-difluorobenzyl)-1-(4-(3,5-dimethyl-1H-1,2,4-triazol-1-yl)-5-fluoropyrimidin-2-yl)-N-hydroxypiperidine-4-carboxamide], the half-maximal effective concentration (EC50) is 0.1 to 100 nM.

Regarding `Cc1cnn(C)c1-c1nc(N2CCC(C(=O)N(O)Cc3ncccc3Cl)CC2)ncc1F` [Compound 9, N-((3-chloropyridin-2-yl)methyl)-1-(4-(1,4-dimethyl-1H-pyrazol-5-yl)-5-fluoropyrimidin-2-yl)-N-hydroxypiperidine-4-carboxamide], the concentration for a half-maximal effect (EC50) lay in the range of 0.1 to 100 nM.

Consider `Cc1cnn(C)c1-c1nc(N2CCC(C(=O)N(C)Cc3cncs3)CC2)ncc1F` [Compound 98, 1-(4-(1,4-dimethyl-1H-pyrazol-5-yl)-5-fluoropyrimidin-2-yl)-N-methyl-N-(thiazol-5-ylmethyl)piperidine-4-carboxamide], for which the EC50 fell in the range of 0.1 to 100 nM.

Take `CCN(Cc1cc(F)cc(F)c1F)C(=O)C1CCN(c2ncc(F)c(-c3c(C)cnn3C)n2)CC1` [Compound 67, 1-(4-(1,4-dimethyl-1H-pyrazol-5-yl)-5-fluoropyrimidin-2-yl)-N-ethyl-N-(2,3,5-trifluorobenzyl)piperidine-4-carboxamide]: the 50% effective concentration (EC50) was 0.1 to 100 nM.

For the compound `Cc1ncc(CN(C)C(=O)C2CCN(c3ncc(F)c(-c4c(C)cnn4C)n3)CC2)s1` [Compound 91, 1-(4-(1,4-dimethyl-1H-pyrazol-5-yl)-5-fluoropyrimidin-2-yl)-N-methyl-N-((2-methylthiazol-5-yl)methyl)piperidine-4-carboxamide], the EC50 lay within 0.1 to 100 nM.

`Cc1cnn(C)c1-c1nc(N2CCC(C(=O)N(O)Cc3cnsc3)CC2)ncc1F` [Compound 51]: the 50% effective concentration (EC50) lay in the range of 0.1 to 100 nM.

In the case of `Cc1cnn(C)c1-c1nc(N2CCC(C(=O)N(O)Cc3cncc(C#N)c3)CC2)ncc1F` [Compound 52, N-((5-cyanopyridin-3-yl)methyl)-1-(4-(1,4-dimethyl-1H-pyrazol-5-yl)-5-fluoropyrimidin-2-yl)-N-hydroxypiperidine-4-carboxamide], the EC50 lay in the range of 0.1 to 100 nM.

As to `Cc1cnn(C)c1-c1nc(N2CCC(C(=O)NCc3ccn(C)n3)CC2)ncc1F` [Compound 44, 1-(4-(1,4-dimethyl-1H-pyrazol-5-yl)-5-fluoropyrimidin-2-yl)-N-((1-methyl-1H-pyrazol-3-yl)methyl)piperidine-4-carboxamide], the EC50 was in the range of 1000 to 10000 nM.

For `[2H]C([2H])([2H])N(C(=O)C1CCN(c2ncc(F)c(-c3c(C)cnn3C)n2)CC1)C([2H])([2H])c1cc(F)cc(F)c1F` [Compound 74, 1-(4-(1,4-dimethyl-1H-pyrazol-5-yl)-5-fluoropyrimidin-2-yl)-N-(methyl-d3)-N-((2,3,5-trifluorophenyl)methyl-d2)piperidine-4-carboxamide], the EC50 is 0.1 to 100 nM.

On to `Cc1cnn(C)c1-c1nc(N2CCC(C(=O)N(C)Cc3cscn3)CC2)ncc1F` [Compound 93, 1-(4-(1,4-dimethyl-1H-pyrazol-5-yl)-5-fluoropyrimidin-2-yl)-N-methyl-N-(thiazol-4-ylmethyl) piperidine-4-carboxamide], for which the concentration for a half-maximal effect (EC50) is 0.1 to 100 nM.

Take `Cc1cnn(C)c1-c1nc(N2CCC(C(=O)N(O)Cc3ncccc3F)CC2)ncc1F` [Compound 8, 1-(4-(1,4-dimethyl-1H-pyrazol-5-yl)-5-fluoropyrimidin-2-yl)-N-((3-fluoropyridin-2-yl)methyl)-N-hydroxypiperidine-4-carboxamide]: the 50% effective concentration (EC50) lay within 0.1 to 100 nM.

For the compound `Cc1nc(C)n(-c2nc(N3CCC(C(=O)N(O)Cc4ncccc4F)CC3)ncc2F)n1` [Compound 13, 1-(4-(3,5-dimethyl-1H-1,2,4-triazol-1-yl)-5-fluoropyrimidin-2-yl)-N-((3-fluoropyridin-2-yl)methyl)-N-hydroxypiperidine-4-carboxamide], the concentration for a half-maximal effect (EC50) was in the range of 0.1 to 100 nM.

In the case of `[2H]C([2H])([2H])N(C(=O)C1CCN(c2ncc(F)c(-c3nnc(C)s3)n2)CC1)C([2H])([2H])c1cc(F)cc(F)c1F` [Compound 97, 1-(5-fluoro-4-(5-methyl-1,3,4-thiadiazol-2-yl)pyrimidin-2-yl)-N-(methyl-d3)-N-((2,3,5-trifluorophenyl)methyl-d2)piperidine-4-carboxamide], the EC50 lay within 0.1 to 100 nM.

On to `[2H]C([2H])([2H])N(C(=O)C1CCN(c2nc(-c3c(C)cnn3C)ncc2F)CC1)C([2H])([2H])c1cc(F)cc(F)c1F` [Compound 73, 1-(2-(1,4-dimethyl-1H-pyrazol-5-yl)-5-fluoropyrimidin-4-yl)-N-(methyl-d3)-N-((2,3,5-trifluorophenyl)methyl-d2)piperidine-4-carboxamide], for which the concentration for a half-maximal effect (EC50) lay within 0.1 to 100 nM.

On to `CN(Cc1cc(F)cc(F)c1F)C(=O)C1CCN(c2ncc(F)c(-c3ncnn3C)n2)CC1` [Compound 68, 1-(5-fluoro-4-(1-methyl-1H-1,2,4-triazol-5-yl)pyrimidin-2-yl)-N-methyl-N-(2,3,5-trifluorobenzyl)piperidine-4-carboxamide], for which the EC50 is 0.1 to 100 nM.
